Reference: US11167005B2, “Peptides for treating Sjogren's syndrome” (YEDA RESEARCH AND DEVELOPMENT CO. LTD., priority 2017, dated 2021)
Entries after “also recorded” stand apart in the source; their conditions may differ.

Legend:
TGF-β = TGF-β gene expression in PBMCs of SS patients, real-time RT-PCR; format: cell-based, human; details: 48 hours; for expression of the gene for TGF-β: PBMCs isolated from SS patients, p=0.012 vs medium alone, p=0.028 vs control peptide
Experimental: (§1) 5×10^6/mL peripheral blood mononuclear cells (PBMCs) obtained from blood samples of rheumatoid arthritis (RA) patients, anti-phospholipid syndrome patients (APS) and SS patients were incubated in-vitro in: medium alone, medium containing 25 μg/mL hCDR1 (SEQ ID NO: 1), or medium containing 25 μg/mL of control scrambled peptide (SEQ ID NO: 2). Following 48 hours of incubation, cells were collected and mRNA was prepared from all samples. The expression of various genes was determined using real-time RT-PCR. The control peptide has the same amino acid residues as SEQ ID NO:1 in a scrambled order.
PBMCs of patients with pSS were isolated and incubated in vitro for 48 hours in the presence of medium, hCDR1 (SEQ ID NO: 1) or a control scrambled peptide (SEQ ID NO: 2). Thereafter, RNA was extracted from the cells and gene expression was determined by real-time RT-PCR.

IDO [1] = assay: IDO gene expression in PBMCs of pSS patients, real-time RT-PCR; format: cell-based, human; details: for IDO gene expression on addition of recombinant cytokine to cultures of PBMCs with hCDR1: compared with hCDR1 alone (FIG. 3C)
Experimental: Following 48 hours of incubation, cells were collected and mRNA was prepared from all samples. The expression of various genes was determined using real-time RT-PCR.
Thereafter, RNA was extracted from the cells and gene expression was determined by real-time RT-PCR.
Since both IL-1β and IFN-α were reported to increase the production and expression of IDO, the effects of the addition of recombinant IL-1β or IFN-α to cultures of PBMCs with hCDR1 on IDO gene expression were further tested.
(§2) The effect of IDO inhibition on the expression of the suppressive master gene FOXP3, that is expressed on functional T regulatory cells, was tested.

FOXP3 = FOXP3 gene expression in PBMCs of SS patients, real-time RT-PCR; format: cell-based, human
Experimental: as §1, §2

MX1 = MX1 gene expression in PBMCs of SS patients, real-time RT-PCR; format: cell-based, human; details: 25 μg/mL, 48 hours
Experimental: as §1

pathogenic cytokines [2] = assay: Gene expression of pathogenic cytokines in PBMCs of rheumatoid arthritis patients; format: cell-based, human; details: 25 μg/mL, 48 hours, vs medium alone or control peptide (FIG. 1A)
Experimental: as §1

BLyS = BLyS gene expression in PBMCs of SS patients, real-time RT-PCR; format: cell-based, human; details: 25 μg/mL, 48 hours
Experimental: as §1

SLE in murine models = details: cited from earlier work
SLE patients = details: Phase II clinical trial in SLE patients (Urowitz et al. 2015); cited from earlier work
DNA = details: background statement; cited from earlier work
[3] = Phase Ia and Ib clinical studies, humans; cited from earlier work
IL-1β = IL-1β gene expression in PBMCs of SS patients, real-time RT-PCR; format: cell-based, human; details: 25 μg/mL, 48 hours
Experimental: as §1

IDO [4] = assay: IDO gene expression in PBMCs of subjects with RA; format: cell-based, human; details: 48 hours (FIG. 3B)
pathogenic cytokines [5] = assay: Gene expression of pathogenic cytokines in PBMCs of anti-phospholipid syndrome patients; format: cell-based, human; details: 25 μg/mL, 48 hours, vs medium alone or control peptide (FIG. 1B)
Experimental: as §1

TNF-α = TNF-α gene expression in PBMCs of SS patients, real-time RT-PCR; format: cell-based, human; details: 25 μg/mL, 48 hours
Experimental: as §1

anti-DNA antibodies = details: background statement; cited from earlier work
[6] = PBMCs of pSS patients, compared with hCDR1 alone (FIG. 3D)
[7] = vs medium alone and control scrambled peptide (FIG. 2)
[8] = IDO gene, PBMCs of SS patients, 48 hours
[9] = TGF-β gene, PBMCs of SS patients
[10] = FOXP3 gene, PBMCs of SS patients, 25 μg/mL, 48 hours

## SKGIPQYGGWPWEGWRYEI [control scrambled peptide, Control peptide, reference compound]
TGF-β
  expression of the gene for TGF-β: not

## Cn1cc(C[C@@H](N)C(=O)O)c2ccccc21 [1 mT, 1-methyl-D-tryptophan, reference compound]
IDO [1]; [6]
  IDO gene expression on addition of 1 mT to PBMC cultures with hCDR1: significant decrease
FOXP3; [6]
  FOXP3 expression on addition of 1 mT to PBMC cultures with hCDR1: significant down-regulation

## GYYWSWIRQPPGKGEEWIG [hCDR1, 19-amino-acid synthetic peptide based on CDR1 of the heavy chain of human anti-DNA mAb 16/6Id]
MX1; [7]
  gene expression of MX1: significant reduction; also recorded: significant effects
MX1; MX1 gene
  Modulation by hCDR1: Downregulation
  Percent responders exhibiting gene expression modulation, hCDR1 compared to control peptide: (77%)
  Percent responders exhibiting gene expression modulation, hCDR1 compared to medium: (77%)
  Responders/Total, hCDR1 compared to control peptide: 10/13
  Responders/Total, hCDR1 compared to medium: 10/13
Pathogenic cytokines [2]
  gene expression of pathogenic cytokines: No significant effects; also recorded: non-significant effects
BLyS; [7]
  gene expression of the BLyS gene: significant reduction
BLyS; BLyS gene
  Modulation by hCDR1: Downregulation
  Percent responders exhibiting gene expression modulation, hCDR1 compared to control peptide: (50%)
  Percent responders exhibiting gene expression modulation, hCDR1 compared to medium: (70.5%)
  Responders/Total, hCDR1 compared to control peptide: 6/12
  Responders/Total, hCDR1 compared to medium: 12/17
SLE in murine models
  serological and clinical disease manifestations of SLE: ameliorate serological and clinical disease manifestations
SLE patients
  effects on several parameters: beneficial effects
DNA
  binding to DNA: does not bind
[3]
  safety and tolerability: safe and well tolerated
IDO [1]; [8]
  Modulation by hCDR1: Upregulation
  Percent responders exhibiting gene expression modulation, hCDR1 compared to control peptide: (69%)
  Percent responders exhibiting gene expression modulation, hCDR1 compared to medium: (81%)
  Responders/Total, hCDR1 compared to control peptide: 9/13
  Responders/Total, hCDR1 compared to medium: 13/16
IDO [1]; PBMCs of patients with pSS, 48 hours, vs medium alone or control peptide (FIG. 3A)
  expression of the IDO gene: up-regulated significantly
IL-1β; [7]
  gene expression of IL-1β: significant reduction; also recorded: significant effects
IL-1β; IL-1β gene
  Modulation by hCDR1: Downregulation
  Percent responders exhibiting gene expression modulation, hCDR1 compared to control peptide: (61.5%)
  Percent responders exhibiting gene expression modulation, hCDR1 compared to medium: (86%)
  Responders/Total, hCDR1 compared to control peptide: 8/13
  Responders/Total, hCDR1 compared to medium: 12/14
IDO [4]
  expression of IDO: did not affect significantly
Pathogenic cytokines [5]
  gene expression of pathogenic cytokines: No significant effects; also recorded: non-significant effects
TNF-α; [7]
  gene expression of TNF-α: significant reduction; also recorded: significant effects
TNF-α; TNF-α gene
  Modulation by hCDR1: Downregulation
  Percent responders exhibiting gene expression modulation, hCDR1 compared to control peptide: (61.5%)
  Percent responders exhibiting gene expression modulation, hCDR1 compared to medium: (78.5%)
  Responders/Total, hCDR1 compared to control peptide: 8/13
  Responders/Total, hCDR1 compared to medium: 11/14
anti-DNA antibodies
  binding to anti-DNA antibodies: does not bind
TGF-β
  expression of the gene for TGF-β: significantly up-regulated
TGF-β; [9]
  Modulation by hCDR1: Upregulation
  Percent responders exhibiting gene expression modulation, hCDR1 compared to control peptide: (72.7%)
  Percent responders exhibiting gene expression modulation, hCDR1 compared to medium: (70.5%)
  Responders/Total, hCDR1 compared to control peptide: 8/11
  Responders/Total, hCDR1 compared to medium: 12/17
FOXP3; [10]
  Modulation by hCDR1: Upregulation
  Percent responders exhibiting gene expression modulation, hCDR1 compared to control peptide: (58%)
  Percent responders exhibiting gene expression modulation, hCDR1 compared to medium: (75%)
  Responders/Total, hCDR1 compared to control peptide: 7/12
  Responders/Total, hCDR1 compared to medium: 12/16
FOXP3; PBMCs of SS patients, 25 μg/mL, 48 hours, vs medium alone and control scrambled peptide (FIG. 2)
  gene expression of the FOXP3 gene: significant increase

## IFN-α
IDO [1]
  IDO gene expression on addition of recombinant cytokine to cultures of PBMCs with hCDR1: increased IDO gene expression to levels much higher

## IL-1β: recombinant IL-1β added to cultures of PBMCs with hCDR1
IDO [1]
  IDO gene expression on addition of recombinant cytokine to cultures of PBMCs with hCDR1: increased IDO gene expression to levels much higher
